Measured values taken from US11730759B1, “Sulfasalazine-loaded zinc oxide nanoparticles for the treatment of ulcerative colitis” (priority 2023, dated 2023).

Tested on: ulcerative colitis (UC) rats
Assay type: in vivo
Conditions: sulfasalazine 100 mg/kg P.O., loaded ZnONPs 100 mg/kg P.O. containing 12.2 mg sulfasalazine/kg
Protocol: Forty male albino rats were randomly divided into four groups (n=10 rats), with all groups were treated for 7 days, as follows:
Group 1: Rats received saline daily for 21 consecutive days by rectal catheter and served as the normal control group (negative control).
Group 2: The disease group received 1 ml acetic acid 3% for three days and served as the ulcerative colitis (UC) control group (positive control).
Group 3: In the standard group, rats received free sulfasalazine (100 mg/kg; P.O. i.e., about 20 mg/rat 200 g) after induction of UC by acetic acid 3% as in group 2.
Group 4: The treatment group, where UC rats received the dose of ZnONPs loaded sulfasalazine (100 mg/kg; P.O. of the ZnONPs) containing 12.2 mg sulfasalazine/kg; P.O.
Markers estimated: • Macroscopic examination of colonic mucosa. • Inflammatory mediators such as tumor necrosis factor-α (TNF-α), interleukin 1beta (IL 1B), malondialdehyde (MBA), reduced glutathione (GSH), superoxide dismutase (SOD), caspase-1, and cyclooxygenase-2 (COX2). • Inflammatory mediators are estimated by ELIZA.

O=C(O)c1cc(/N=N/c2ccc(S(=O)(=O)Nc3ccccn3)cc2)ccc1O [sulfasalazine]
overall effect on ulcerative colitis (inflammatory mediators, healing) relative to other treatments: lower than that observed for Group 4
